pEC50: −log10 of the molar value. Where “and” joins values, the source holds several entries; their conditions need not be identical. Identical values can stand only once. Like-named read-outs stand apart in the source and are kept apart here. Marks after values point to notes of the source that are not given here.

For data set [1] the following is noted: cited from earlier work.
In a further data set the test system is IFN-γ. The data set is described as follows: LPS-induced IFN-γ in cultured BMDM. The format is cell-based. Particulars: Mus musculus, corticosteroid overnight, LPS 10 ng/ml 3 h. The source says:
(§1) The immunosuppressive activity of corticosteroids is in part due to their inhibition of NF-κB-induced cytokines including TNF-α, IL-6, and IL-12. Furthermore, expression of some inflammatory-mediated proteins such as STAT1 is mediated via GREs, and not the NF-κB pathway. We therefore expanded murine bone marrow-derived macrophages (BMDM) in vitro, and after 5 days of culture tested the relative efficacy of different corticosteroids to prevent LPS-induced cytokine secretion.
(§2) BMDM mouse bone marrow derived macrophage (mBMDM) cultures were generated from the femur and tibia from two 7–11-week-old C57BL/6 mice. Briefly, bone marrow cells were carefully flushed out, suspended in ice-cold PBS, and spun down. After the supernatant was removed, the pelleted cells were resuspended in 2 ml (ammonium-Chloride-Potassium) ACK lysis buffer (Thermo Fisher, Cat# A1049201) and incubated for 3–4 min, followed by 14 ml ice-cold PBS, and then spun down. The pelleted cells were resuspended in 43 ml complete media [Roswell Park Memorial Institute (RPMI 1640), Gibco, Cat# 11875-093; 10% heat-inactivated fetal bovine serum (HiFBS), HyClone, Cat# SH30406.02; 1% 2 mM L-glutamine; 1% penicillin-streptomycin, Sigma, Cat# P4333-100ML; 1% MEM NEAA, Gibco, Cat# 11140-050; 1% Na Pyruvate, Gibco, Cat# 11360-070; 55 μM 2-Mercaptoethanol, Gibco, Cat#21985-023]. A total of 25 ng/ml M-CSF was added to the culture. Cells were dispensed as 200 μl per well into a 96-well tissue culture plate and incubated at 37°C, 5% CO2 for 4 days. On Day 5, media were removed and 100 μl fresh complete media containing M-CSF were added. Corticosteroids were added and cells incubated at 37°C and 5% CO2 overnight. Untreated cells were incubated with media. On Day 6, 10 ng/ml of lipopolysaccharide (LPS) was added and incubated at 37°C and 5% CO2 for 3 h followed by removal of cell media for cytokine analysis. Cytokines were measured using a Meso Scale Discovery (MSD), V-PLEX kit (V-PLEX Cat# K-15048D, www.mesoscale.com).

Data set [2] relates to B10-mdx mice. The data set is described as follows: Tail-suspension test 24 h after force-swim test (Study 2). Format: in vivo, mouse. Particulars: daily dosing 4 weeks, vs vehicle B10-mdx. The procedure: Corticosteroid-treated mice were subjected to the force-swim test (FST) followed by the tail-suspension test (TST) 24 h later. During the TST, normal mice will struggle and constantly move. However, mice show depression-like behavior by quickly giving up, stop moving, and remaining still for a greater percentage of the time.
(§3) Study 2: The goal of the second study was to evaluate corticosteroid side effects and efficacy in a longer study (4 months). After 28 days of dosing, mice were tested for depression-like behavior using a measure of corticosteroid-induced depression (FST followed by TST). Muscle function was tested via grip strength. Tests for depression and for grip-strength were done in a blinded manner. After 4 months, mice were euthanized, and tissues were collected. Bone from whole left leg was collected for micro-CT analysis. The number of animals per group was as follows: WT, n = 16; B10-mdx, n = 15; corticosteroid-treated groups, n = 8–10.
• 1) Force-swim test: Animals were single housed and acclimated in the behavior room for 30 min prior to test. A clean 1-L beaker was filled with 700 to 800 ml of 23°C water. Each mouse was placed into the water for 6 min. The total immobility time was recorded. After the test, the animals were dried and placed in a cage on a heating pad for about 10 min before returning to the home cages. • 2) Tail-suspension test: Isolated mice were suspended 50 cm above the floor by surgical tape placed approximately 1 cm from the tip of the tail for 6 min. The total immobility time of mice was measured. Mice were considered immobile only when they hung passively and completely motionless.

In another data set the test system is STAT1. The experiment in a line: GRE-mediated STAT1 in cultured BMDM. Conditions: for pEC50: Mus musculus, BMDM, corticosteroid overnight, LPS 10 ng/ml 3 h; for STAT1/IFN-γ Ratio: ratio of EC50 values. The format is cell-based, mouse.
Description: as §1, §2

Data set [3] concerns B10-mdx mice. The experiment in a line: Circulating lymphocytes and neutrophils (CBC) after 2 weeks (Study 1). The format is in vivo, mouse. Here is the method:
It is understood that part of the efficacy of corticosteroids is via their impact on leukocyte trafficking, resulting in a decrease in lymphocyte and an increase in neutrophil counts in the blood within hours of drug administration. Corticostetoids regulate leukocyte trafficking via changes in adhesion molecules and cytokines, which likely reflects inhibition of NF-κB [39, 40]. The effect of the three corticosteroids on leukocyte trafficking was assessed in B10-mdx mice after 2 weeks of dosing (Study 1). No significant differences in neutrophil-to-lymphocyte ratio were seen between wildtype and B10-mdx mice (Fig. 6a).
Study 1: The goal of this study was to define the dose-response of each of the three corticosteroids. […] On Day 11, mice were fasted for 6 h and then blood was obtained to measure blood glucose. Blood glucose was measured using a glucometer (ACCU-CHECK) by tail bleeding. At the end of 14 days, mice were euthanized, and blood samples were evaluated for complete blood count (CBC) and plasma were collected for analysis of corticosterone levels, osteocalcin, creatine kinase, and cytokines. Brain, muscle, and liver were collected for RNAseq. The number of animals per group was as follows: WT, n = 15; B10-mdx, n = 11; corticosteroid-treated groups, n = 10–12.

The subject of data set [4] is B10-mdx mice. The experiment in a line: Femur bone density by micro-CT (Study 2). The format is in vivo, mouse. Particulars: for bone density measured by microCT: 4 months of treatment. Here is the method: To evaluate the similarities and differences of potential side effects of the three corticosteroids, plasma/blood were evaluated ex vivo for their effects on endogenous corticosteroid after 14 days of dosing (Study 1) and glucose levels (Study 1) after 11 days of dosing. Bone formation was measured by evaluating osteocalcin levels in Study 1 after 14 days. Bone density was measured by micro-computed tomography (micro-CT) in Study 2 after 4 months.
as §3
Micro-CT analysis was performed by the Rutgers University Molecular Imaging Center (RUMIC). Briefly, skeletons were harvested at trial endpoint and stored in 70% ethanol and transferred for imaging analysis. Hindlimbs were soaked in isotonic saline solution overnight to rehydrate before imaging. […] The rotation step was 0.4° through 180° total rotation, and three images were averaged at each rotation step. Each distal femur was scanned separately, and images were saved. Scan images were reconstructed using Skyscan nRecon software.

The test system of data set [5] is mineralocorticoid receptor. Also noted: method as in PMID 30745312. Particulars: cited from earlier work.
[6] abbreviates: doses tested (deflazacort 1.25-15 mg/kg; vamorolone all doses 15, 30, 45 mg/kg).
The mark [7] stands for this setting: human, 2 mg/kg, ref Conklin et al., Pharmacol Res. 2018.
[8] abbreviates: human, 6 mg/kg, ref Conklin et al., Pharmacol Res. 2018.

Consider `CC(=O)OCC(=O)[C@@]12N=C(C)O[C@@H]1C[C@H]1[C@@H]3CCC4=CC(=O)C=C[C@]4(C)[C@H]3[C@@H](O)C[C@@]12C` [Deflazacort], for which the Cmax (usually the maximum level reached in the sampled fluid or tissue) in data set [1] (human, 0.9 mg/kg, ref FDA 208684,208685Orig1s000ClinPharmR.pdf) was 329 ng/mL. The “AUC (Day 1)” value in data set [1] (human, 0.9 mg/kg, ref FDA 208684,208685Orig1s000ClinPharmR.pdf, listed as Emflaza) was 567 ng·h/mL and 630 ng·h/mL. Moreover, the pEC50 (in general, −log10 of the EC50, conventionally taken in molar units) in the data set on IFN-γ was 9.54; in the data set with STAT1, 8.51. Further, in the data set on B10-mdx mice [2] (setting [6]), the “immobilization time in tail suspension test” value (“immobilization time” below) is “did not increase”. The “STAT1/IFN-γ Ratio” value with STAT1 was found to be 11×. The “% decrease in fraction of lymphocytes at Day 14 from mdx vehicle” value (shortened to “% decrease in fraction of lymphocytes”) is reported as “(1%)” in the data set with B10-mdx mice [3] (1.25 mg/kg PO daily), 5% in the data set with B10-mdx mice [3] (2.5 mg/kg PO daily), 9%* in the data set on B10-mdx mice [3] (5 mg/kg PO daily) and 19%**** with B10-mdx mice [3] (15 mg/kg PO daily). Further, the “% increase in fraction of PMNs at Day 14” value in the data set on B10-mdx mice [3] (1.25 mg/kg PO daily) is 3%; with B10-mdx mice [3] (2.5 mg/kg PO daily), 32%*; in the data set on B10-mdx mice [3] (5 mg/kg PO daily) it was 41%*; in the data set on B10-mdx mice [3] (15 mg/kg PO daily), 82%****. For the same molecule, in the data set with B10-mdx mice [4], the “bone density measured by microCT” value is listed as “not reaching significance”. In data set [5], the “effect on mineralocorticoid receptor signaling” value (“effect” for short) is “no effect”.
`C[C@]12C=CC(=O)C=C1CC[C@@H]1[C@@H]2[C@@H](O)C[C@@]2(C)[C@H]1CC[C@]2(O)C(=O)CO` [Prednisolone]: the “AUC (Day 1)” value in data set [1] (human adults, 0.35 mg/kg (20 mg/57 kg), AUC0-12, average of two formulations, ref Bashar et al., Dose Response 2018) is 3301 ng·h/mL. Also, the Cmax in data set [1] (human adults, 0.35 mg/kg (20 mg/57 kg), average of two formulations, ref Bashar et al., Dose Response 2018) was 659 ng/mL. The pEC50 in the data set with IFN-γ was 9.30; in the data set with STAT1 it was 8.03. In addition, in the data set with B10-mdx mice [2] (high dose (5 mg/kg)), the “immobilization time” value is recorded as “increased the immobilization time significantly”. For the same molecule, the “% decrease in fraction of lymphocytes” value with B10-mdx mice [3] (1.2 mg/kg PO daily) was 17%**; in the data set with B10-mdx mice [3] (2.4 mg/kg PO daily), 18%**; in the data set with B10-mdx mice [3] (5 mg/kg PO daily), 21%***. The “% increase in fraction of PMNs at Day 14” value was 64%** in the data set with B10-mdx mice [3] (1.2 mg/kg PO daily), 81%*** in the data set on B10-mdx mice [3] (2.4 mg/kg PO daily) and 92%**** in the data set on B10-mdx mice [3] (5 mg/kg PO daily). Further, in the data set on B10-mdx mice [4] (4 months, highest dose), the “bone density in the femur (micro-CT tissue mineral density)” value is “significantly reduced bone density”. For the same molecule, the “effect” value in data set [5] was “agonist”.
Take `C[C@@H]1C[C@H]2[C@@H]3CCC4=CC(=O)C=C[C@]4(C)C3=CC[C@]2(C)[C@@]1(O)C(=O)CO` [Vamorolone]: the “AUC (Day 1)” value was 761 ng·h/mL in data set [1] (setting [7]) and 3279 ng·h/mL in data set [1] (setting [8]). For the same molecule, the Cmax is on record as 199 ng/mL in data set [1] (setting [7]) and 856 ng/mL in data set [1] (setting [8]). Besides, the values for the pEC50 in the data set on IFN-γ and in the data set with STAT1 were 9.10 and 8.12, respectively. In addition, in the data set with B10-mdx mice [2] (setting [6]), the “immobilization time” value is “increased the immobilization time significantly”. Further, in the data set with STAT1, the “STAT1/IFN-γ Ratio” value stood at 10×. The “% decrease in fraction of lymphocytes” value with B10-mdx mice [3] (15 mg/kg PO daily) is listed as “(0.5%)”; in the data set with B10-mdx mice [3] (30 mg/kg PO daily), 5%; in the data set with B10-mdx mice [3] (45 mg/kg PO daily), 14%**. Further, the “% increase in fraction of PMNs at Day 14” value with B10-mdx mice [3] (15 mg/kg PO daily) came out at 7%; in the data set with B10-mdx mice [3] (30 mg/kg PO daily), 27%; with B10-mdx mice [3] (45 mg/kg PO daily), 70%**. In the data set on B10-mdx mice [4], the “bone density measured by microCT” value was “not reaching significance”. Moreover, the “effect” value in data set [5] is “antagonist”.

The values are drawn from paper PMC10800023 (Human Molecular Genetics, 2023).
